In paper PMC12239085, “Silver(I) Ions Bridging Oxadiazole-2-thione Derivatives with Mitochondriotropic Agents: A Promising Strategy for Potent Anticancer Chemotherapy” (Inorganic Chemistry, 2025):
Values joined by “and” are separate entries in the source; they are usually repeats but may differ in a detail not shown here. Equal values may be shown once. Read-outs that look alike come from different tables or passages of the source.

Experiments:
[1] = tested on: MCF-7 human breast adenocarcinoma cells (hormone-dependent); experiment: SRB antiproliferative assay, MCF-7; format: cell-based; settings: for IC50: Homo sapiens, MCF7, SRB assay, 48 h incubation; for (%) cells viability: MCF-7 cells, ligands with IC50 higher than 30 μM
Procedure: (§1) Stock solutions of compounds 1a–5a and 1–5 (0.01 M) in DMSO were freshly prepared and subsequently diluted with cell culture media to appropriate concentrations for various biological experiments. These included the assessment of cell viability using the SRB assay, micronucleus testing, cell morphology studies, cell cycle arrest, AO/EB staining, and mitochondrial membrane permeabilization tests. For CT-DNA binding studies, experiments were conducted in DMSO/buffer solutions. All biological experiments were performed in triplicate or more.
(§2) Stock solutions of 1a–5a and 1–5 (0.01 M) were dissolved in DMSO and subsequently diluted with cell culture medium to the desired concentrations (0.5–30 μM). MCF-7, MDA MB-231, and MRC-5 cells were plated in 96-well flat-bottom microplates at various densities: 6000, 8000, and 2000 cells per well, respectively. The cells were incubated for 24 h at 37 °C and then exposed to 1a–5a and 1–5 for 48 h. ,–
(§3) Cytotoxicity was evaluated using the SRB colorimetric assay at λ = 568 nm, with cell survival percentages calculated relative to the untreated control cells. Detailed information on the SRB assay procedure can be found in the previous publication. ,–

[2] = tested on: MDA-MB-231 human breast adenocarcinoma cells (hormone-independent); experiment: SRB antiproliferative assay, MDA-MB-231; format: cell-based; settings: Homo sapiens, MDA-MB-231, 48 h incubation
Procedure: as §1, §2, §3

[3] = tested on: normal human fetal lung fibroblast (MRC-5) cells; experiment: SRB toxicity assay, MRC-5; format: cell-based; settings: Homo sapiens, MRC5, 48 h incubation
Procedure: as §1, §2, §3

[4] = tested on: MCF-7 human breast adenocarcinoma cells (hormone-dependent); settings: 48 h incubation; ref not 'this study', ref number not given; cited from earlier work
[5] = tested on: MDA-MB-231 human breast adenocarcinoma cells (hormone-independent); parameters: method as in column not 'this study', ref number not given; settings: 48 h incubation; ref not 'this study', ref number not given; cited from earlier work
[6] = tested on: normal human fetal lung fibroblast (MRC-5) cells; parameters: method as in column not 'this study', ref number not given; settings: 48 h incubation; ref not 'this study', ref number not given; cited from earlier work
[7] = tested on: nontumorigenic human breast epithelial cell line (MCF-10A); parameters: method as in column not 'this study', ref number not given; settings: 48 h incubation; ref not 'this study', ref number not given; cited from earlier work
MRC-5 cells = tested on: MRC-5 cells; parameters: method as in number not given; settings: cited from earlier work
MCF-7 cells [8] = tested on: MCF-7 cells; parameters: method as in number not given; settings: cisplatin comparison; ref number not given; cited from earlier work
MCF-7 cells [9] = tested on: MCF-7 cells; parameters: method as in number not given; settings: cisplatin comparison; ref number not given; cited from earlier work; remark: listed apart in the source
MCF-7 cells [10] = tested on: MCF-7 cells; parameters: method as in number not given; settings: cisplatin comparison, ref number not given; cited from earlier work
lipoxygenase (LOX) = target: T1, lipoxygenase (LOX) (Glycine max, UniProt P08170); settings: cisplatin comparison; ref number not given; read-out: IC50 against LOX; cited from earlier work
T1 sequence (P08170 1-839): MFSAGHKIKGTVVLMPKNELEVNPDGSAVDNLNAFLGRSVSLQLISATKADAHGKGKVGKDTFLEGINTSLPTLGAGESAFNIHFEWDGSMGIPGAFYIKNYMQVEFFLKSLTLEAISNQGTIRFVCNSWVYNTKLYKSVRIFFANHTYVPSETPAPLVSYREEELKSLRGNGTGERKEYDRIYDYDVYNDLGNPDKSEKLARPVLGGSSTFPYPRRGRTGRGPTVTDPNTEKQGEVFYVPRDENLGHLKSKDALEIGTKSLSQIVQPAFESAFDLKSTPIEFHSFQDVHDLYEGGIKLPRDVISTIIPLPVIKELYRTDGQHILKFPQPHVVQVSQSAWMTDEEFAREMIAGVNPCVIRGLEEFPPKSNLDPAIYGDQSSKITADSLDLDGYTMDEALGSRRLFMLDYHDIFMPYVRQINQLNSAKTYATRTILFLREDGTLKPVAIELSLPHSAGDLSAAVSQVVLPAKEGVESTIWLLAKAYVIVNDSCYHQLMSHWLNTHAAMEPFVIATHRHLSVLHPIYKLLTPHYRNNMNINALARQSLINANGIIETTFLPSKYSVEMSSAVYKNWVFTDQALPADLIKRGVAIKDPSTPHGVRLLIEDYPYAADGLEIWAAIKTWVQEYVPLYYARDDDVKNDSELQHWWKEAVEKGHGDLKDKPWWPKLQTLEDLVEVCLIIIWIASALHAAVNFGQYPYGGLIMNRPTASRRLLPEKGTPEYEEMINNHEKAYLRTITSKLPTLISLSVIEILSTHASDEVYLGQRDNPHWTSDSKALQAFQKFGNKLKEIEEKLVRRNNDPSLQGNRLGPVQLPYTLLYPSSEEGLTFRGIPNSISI

SMILES | IC50 [1] [µM] | (%) cells viability [1] [%] | IC50 [2] [µM] | IC50 [3] [µM] | other results
S=c1[nH]nc(-c2ccccc2)o1 [1a] | > 30 | 84.7 | > 30 | > 30 | 
Fc1ccccc1-c1nnc(S)o1 [2a] | > 30 | 95.7 | > 30 | > 30 | 
Fc1ccc(-c2nnc(S)o2)cc1 [3a] | > 30 | 90.7 | > 30 | > 30 | 
Sc1nnc(-c2ccccc2Cl)o1 [4a] | > 30 | 80.3 | > 30 | > 30 | 
Sc1nnc(-c2cccc(Cl)c2)o1 [5a] | > 30 | 90.1 | > 30 | > 30 | 
c1ccc(P(c2ccccc2)c2ccccc2)cc1 [TPP, triphenylphosphine] |  |  |  |  | IC50 [4]: 28.9 ± 1.4 µM; IC50 [5]: > 30 µM; IC50 [6]: > 30000 nM
N.N.[Cl][Pt][Cl] [cisplatin] |  |  |  |  | IC50 [4]: 5.5 ± 0.4 µM; IC50 [5]: 26.7 ± 1.1 µM; IC50 [6]: 1100 ± 200 nM; IC50 [7]: 11 ± 3 µM; Percentage of MN (MRC-5 cells; control = 0.8, ref number not given): 1.6 (control = 0.8) %; Relative ratio of MN toward its control (MRC-5 cells; ref number not given): 2.0; relative rate of apoptotic MCF-7 cells (MCF-7 cells [8]): 5.88 and 5.9; Relative rate of MCF-7 cells in sub-G1 phase (MCF-7 cells [9]): 2.9; fluorescence quenching (MMP) (MCF-7 cells [10]): 54.9%; IC50 (lipoxygenase (LOX)): 65.9 µM
